Test results reported in patent publication US20250179000A1 (Sanford Burnham Prebys Medical Discovery Institute, priority 2021, published 2025).

What was measured:
Assay type in all cases: cell-based
Human mGlu3 = Human mGlu3 (Homo sapiens, UniProt Q14832); experiment: mGlu receptor in vitro assay, human mGlu3
Description: (§1) Human Embryonic Kidney (HEK-293) cell lines co-expressing rat mGlu receptors 2, 3, 4, 6, 7 or 8 and G protein-coupled inwardly-rectifying potassium (GIRK) channels were grown in Growth Media containing 45% DMEM, 45% F-12, 10% FBS, 20 mM HEPES, 2 mM L-glutamine, antibiotic/antimycotic, non-essential amino acids, 700 μg/mL G418, and 0.6 μg/ml puromycin at 37° C. in the presence of 5% CO2. […] All cell culture reagents were purchased from Invitrogen Corp. (Carlsbad, CA) unless otherwise noted. Calcium assays were used to assess activity of compounds at mGlu1 and mGlu5, as previously described in Engers et al (J. Med. Chem. 2009, 52, 4115-4118). Calcium assays at mGlu3 were performed as described for mGlu5 with the exception that TREx293 mGlu3 Gα15 cells were treated with tetracycline at 20 ng/mL for 20 h prior to assay.
(§2) Briefly, cells were plated into 384-well, black-walled, clear-bottomed poly-D-lysine-coated plates at a density of 15,000 cells/20 μL/well in DMEM containing 10% dialyzed FBS, 20 mM HEPES, and 100 units/mL penicillin/streptomycin (assay media). Plated cells were incubated overnight at 37° C. in the presence of 5% CO2. The following day, the medium was exchanged from the cells to assay buffer [Hanks' balanced salt solution (Invitrogen) containing 20 mM HEPES, pH 7.3] using an ELX405 microplate washer (BioTek), leaving 20 μL/well, followed by the addition of 20 μL/well FluoZin2-AM (330 nM final concentration) indicator dye (Invitrogen; prepared as a stock in DMSO and mixed in a 1:1 ratio with Pluronic acid F-127) in assay buffer. Cells were incubated for 1 h at room temperature, and the dye exchanged to assay buffer using an ELX405, leaving 20 μL/well. Test compounds were diluted to 2 times their final desired concentration in assay buffer (0.3% DMSO final concentration). Agonists were diluted in thallium buffer [125 mM sodium bicarbonate (added fresh the morning of the experiment), 1 mM magnesium sulfate, 1.8 mM calcium sulfate, 5 mM glucose, 12 mM thallium sulfate, and 10 mM HEPES, pH 7.3] at 5 times the final concentration to be assayed. Cell plates and compound plates were loaded onto a kinetic imaging plate reader (FDSS 6000 or 7000; Hamamatsu Corporation, Bridgewater, NJ). Appropriate baseline readings were taken (10 images at 1 Hz; excitation, 470±20 nm; emission, 540±30 nm) and test compounds were added in a 20 μL volume and incubated for approximately 2.5 min before the addition of 10 μL of thallium buffer with or without agonist. After the addition of agonist, data were collected for approximately an additional 2.5 min. Data were analyzed using Excel (Microsoft Corp, Redmond, WA). The slope of the fluorescence increase beginning 5 s after thallium/agonist addition and ending 15 s after thallium/agonist addition was calculated, corrected to vehicle and maximal agonist control slope values, and plotted in using either XLfit (ID Business Solutions Ltd) or Prism software (GraphPad Software, San Diego, CA) to generate concentration-response curves. Potencies were calculated from fits using a four-point parameter logistic equation. For concentration-response curve experiments, compounds were serially diluted 1:3 into 10-point concentration response curves and were transferred to daughter plates using an Echo acoustic plate reformatter (Labcyte, Sunnyvale, CA). Test compounds were applied and followed by EC20 concentrations of glutamate.

Human mGlu2 = Human mGlu2 (Homo sapiens, UniProt Q14416); experiment: mGlu receptor in vitro assay, human mGlu2
Chain of Human mGlu2 (Q14416 19-872): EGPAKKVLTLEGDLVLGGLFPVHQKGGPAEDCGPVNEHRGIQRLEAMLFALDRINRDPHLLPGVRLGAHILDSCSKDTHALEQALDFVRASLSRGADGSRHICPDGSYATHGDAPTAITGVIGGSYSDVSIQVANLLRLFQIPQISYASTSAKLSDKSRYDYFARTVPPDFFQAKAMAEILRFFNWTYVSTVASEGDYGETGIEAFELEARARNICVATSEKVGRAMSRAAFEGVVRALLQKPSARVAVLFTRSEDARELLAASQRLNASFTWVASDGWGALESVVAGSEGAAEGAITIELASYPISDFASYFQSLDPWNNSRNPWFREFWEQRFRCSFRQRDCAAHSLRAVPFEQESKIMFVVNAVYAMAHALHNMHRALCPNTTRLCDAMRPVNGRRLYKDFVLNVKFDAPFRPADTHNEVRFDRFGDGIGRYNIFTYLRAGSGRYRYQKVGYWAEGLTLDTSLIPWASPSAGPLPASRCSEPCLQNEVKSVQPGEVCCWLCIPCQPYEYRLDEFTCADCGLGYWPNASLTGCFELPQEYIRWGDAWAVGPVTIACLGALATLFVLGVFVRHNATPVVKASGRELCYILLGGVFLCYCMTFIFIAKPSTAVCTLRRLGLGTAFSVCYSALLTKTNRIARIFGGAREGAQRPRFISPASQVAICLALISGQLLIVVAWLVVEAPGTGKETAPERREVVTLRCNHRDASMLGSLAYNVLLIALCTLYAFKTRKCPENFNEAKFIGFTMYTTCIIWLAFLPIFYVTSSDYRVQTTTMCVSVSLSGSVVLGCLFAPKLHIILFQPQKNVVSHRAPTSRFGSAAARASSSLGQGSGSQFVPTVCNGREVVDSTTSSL

Rat mGlu2 = target: T1, Rat mGlu2 (Rattus norvegicus, UniProt P31421); experiment: mGlu receptor in vitro assay, thallium flux through GIRK channels, rat mGlu2; conditions: PAM potency with EC20 glutamate
T1 construct: expressed in transfected cells; host or cells: HEK-293 co-expressing GIRK channels
T1 sequence (P31421 19-872): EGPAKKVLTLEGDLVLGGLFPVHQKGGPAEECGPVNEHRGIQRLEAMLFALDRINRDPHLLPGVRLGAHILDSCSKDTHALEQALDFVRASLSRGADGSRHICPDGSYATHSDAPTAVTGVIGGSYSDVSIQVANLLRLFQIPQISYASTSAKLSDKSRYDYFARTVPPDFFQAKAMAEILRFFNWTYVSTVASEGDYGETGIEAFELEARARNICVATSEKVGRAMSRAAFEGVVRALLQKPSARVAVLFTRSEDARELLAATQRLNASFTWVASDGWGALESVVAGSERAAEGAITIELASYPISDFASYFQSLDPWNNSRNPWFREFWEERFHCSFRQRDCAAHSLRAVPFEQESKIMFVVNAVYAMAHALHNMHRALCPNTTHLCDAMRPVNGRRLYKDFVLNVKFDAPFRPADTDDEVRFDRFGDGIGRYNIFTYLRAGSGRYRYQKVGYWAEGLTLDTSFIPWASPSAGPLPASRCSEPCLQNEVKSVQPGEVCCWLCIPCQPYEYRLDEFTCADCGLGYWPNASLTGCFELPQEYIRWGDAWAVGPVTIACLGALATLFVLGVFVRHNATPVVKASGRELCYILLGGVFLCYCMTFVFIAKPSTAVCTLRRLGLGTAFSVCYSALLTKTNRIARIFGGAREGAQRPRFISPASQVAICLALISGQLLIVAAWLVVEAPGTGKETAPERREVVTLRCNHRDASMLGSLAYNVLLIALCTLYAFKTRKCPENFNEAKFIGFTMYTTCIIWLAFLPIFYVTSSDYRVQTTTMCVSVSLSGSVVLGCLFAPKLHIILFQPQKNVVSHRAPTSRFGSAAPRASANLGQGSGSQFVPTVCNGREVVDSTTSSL
Description: as §1
as §2, with “Compound activity at the group II (mGlu2 and mGlu3) and group III (mGlu4, mGlu6, mGlu7, and mGlu8) was assessed using thallium flux through GIRK channels, a method that has been described in detail. Briefly,” for “Briefly,”

Rat mGlu3 = target: T2, Rat mGlu3 (Rattus norvegicus, UniProt P31422); experiment: mGlu receptor in vitro assay (thallium flux through GIRK channels / calcium assay), rat mGlu3; conditions: PAM potency with EC20 glutamate
T2 construct: expressed in transfected cells; host or cells: HEK-293 co-expressing GIRK channels
T2 sequence (P31422 23-879): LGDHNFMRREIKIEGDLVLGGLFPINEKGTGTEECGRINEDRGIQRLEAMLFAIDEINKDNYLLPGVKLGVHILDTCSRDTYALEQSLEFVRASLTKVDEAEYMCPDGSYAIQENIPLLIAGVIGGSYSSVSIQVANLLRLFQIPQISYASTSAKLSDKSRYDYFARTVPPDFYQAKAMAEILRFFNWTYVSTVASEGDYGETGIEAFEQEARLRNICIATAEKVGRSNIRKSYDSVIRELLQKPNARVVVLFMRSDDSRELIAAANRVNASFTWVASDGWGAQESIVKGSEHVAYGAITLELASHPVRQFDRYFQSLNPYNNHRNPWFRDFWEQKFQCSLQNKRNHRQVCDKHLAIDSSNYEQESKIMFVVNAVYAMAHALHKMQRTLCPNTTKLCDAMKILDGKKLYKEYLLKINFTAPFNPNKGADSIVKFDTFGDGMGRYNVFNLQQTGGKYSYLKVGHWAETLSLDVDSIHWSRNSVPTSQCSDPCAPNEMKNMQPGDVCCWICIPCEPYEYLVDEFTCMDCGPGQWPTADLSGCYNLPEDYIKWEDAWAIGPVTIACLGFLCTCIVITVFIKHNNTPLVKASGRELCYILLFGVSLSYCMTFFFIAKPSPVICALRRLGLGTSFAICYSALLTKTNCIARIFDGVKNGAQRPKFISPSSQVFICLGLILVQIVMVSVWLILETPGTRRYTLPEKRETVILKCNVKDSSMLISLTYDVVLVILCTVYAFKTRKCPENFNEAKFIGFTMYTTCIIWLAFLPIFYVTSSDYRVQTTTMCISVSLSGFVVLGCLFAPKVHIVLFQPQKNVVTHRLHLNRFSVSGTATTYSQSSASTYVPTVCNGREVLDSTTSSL
Description: as §1
as §2, with “Compound activity at the group II (mGlu2 and mGlu3) and group III (mGlu4, mGlu6, mGlu7, and mGlu8) was assessed using thallium flux through GIRK channels, a method that has been described in detail. Briefly,” for “Briefly,”

Chain of Human mGlu3 (Q14832 23-879): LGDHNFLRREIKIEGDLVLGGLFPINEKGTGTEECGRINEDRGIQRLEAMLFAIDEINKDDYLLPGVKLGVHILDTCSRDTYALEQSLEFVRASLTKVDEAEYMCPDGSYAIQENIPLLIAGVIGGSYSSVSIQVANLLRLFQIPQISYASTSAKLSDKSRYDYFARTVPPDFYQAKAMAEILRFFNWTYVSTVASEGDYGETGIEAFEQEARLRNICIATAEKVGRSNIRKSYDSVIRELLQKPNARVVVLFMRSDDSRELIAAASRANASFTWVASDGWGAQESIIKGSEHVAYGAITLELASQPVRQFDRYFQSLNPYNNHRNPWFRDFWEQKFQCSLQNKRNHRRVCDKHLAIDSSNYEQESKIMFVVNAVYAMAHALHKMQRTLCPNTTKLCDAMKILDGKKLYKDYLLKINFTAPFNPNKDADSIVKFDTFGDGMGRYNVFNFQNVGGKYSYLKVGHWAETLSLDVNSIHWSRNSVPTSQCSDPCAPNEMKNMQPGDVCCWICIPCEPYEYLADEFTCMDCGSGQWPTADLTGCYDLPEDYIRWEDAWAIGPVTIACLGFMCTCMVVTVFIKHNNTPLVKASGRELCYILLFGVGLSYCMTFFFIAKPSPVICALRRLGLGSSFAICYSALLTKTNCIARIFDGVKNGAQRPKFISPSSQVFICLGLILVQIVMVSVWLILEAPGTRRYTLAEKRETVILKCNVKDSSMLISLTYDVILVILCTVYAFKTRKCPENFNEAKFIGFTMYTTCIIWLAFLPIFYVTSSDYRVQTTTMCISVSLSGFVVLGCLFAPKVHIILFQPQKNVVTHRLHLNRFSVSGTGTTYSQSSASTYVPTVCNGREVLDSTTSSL

| Compound | EC50 (Human mGlu3) [nM] | EC50 (Human mGlu2) [nM] | EC50 (Rat mGlu2) [nM] | EC50 (Rat mGlu3) [nM] |
| --- | --- | --- | --- | --- |
| [2H]/C(=C(/[2H])C([2H])([2H])Oc1ccc(C(=O)CCC)c(O)c1C)C([2H])([2H])Oc1cccc(C(=O)O)c1C [Example 58, (E)-3-((4-(4-Butyryl-3-hydroxy-2-methylphenoxy)but-2-en-1-yl-1,1,2,3,4,4-d6)oxy)-2-methylbenzoic acid] | 540 | 8 |  |  |
| COc1ccc(C(=O)O)cc1OCCCCCCCCCOc1ccc(C(=O)CC(C)(C)C)c(O)c1C [Example 27, 3-{9-[4-(3,3-Dimethylbutanoyl)-3-hydroxy-2-methylphenoxy]nonyloxy}-4-methoxybenzoic acid] | 1120 | 710 |  |  |
| COc1ccccc1C(=O)c1ccc(OCc2cnc(-c3cccc(C(=O)O)c3)cn2)c(C)c1O [compound 73, 3-(5-((3-Hydroxy-4-(2-methoxybenzoyl)-2-methylphenoxy)methyl)pyrazin-2-yl)benzoic acid] | 685 | 2030 |  |  |
| COc1cccc(C(=O)c2ccc(OCc3cnc(-c4cccc(C(=O)O)c4)cn3)c(C)c2O)c1 [compound 75, 3-(5-((3-Hydroxy-4-(3-methoxybenzoyl)-2-methylphenoxy)methyl)pyrazin-2-yl)benzoic acid] | 1340 | 2710 |  |  |
| COc1ccc(C(=O)O)cc1OCCOc1ccc(C(=O)CC(C)(C)C)c(O)c1C [compound 93, 3-{2-[4-(3,3-Dimethylbutanoyl)-3-hydroxy-2-methylphenoxy]ethoxy}-4-methoxybenzoic acid] |  |  | 207 | 1220 |
| CCCC(=O)c1ccc(OCCS(=O)(=O)CCOc2ccc(C(=O)O)c(Cl)c2)c(C)c1O [Example 37, 4-(2-{[2-(4-Butanoyl-3-hydroxy-2-methylphenoxy)ethyl]sulfonyl}ethoxy)-2-chlorobenzoic acid] |  |  | > 10000 | > 30000 |
| Cc1c(OCc2ccc(-c3cccc(C(=O)O)c3)nn2)ccc(C(=O)CC(C)(C)C)c1O [compound 119, 3-(6-((4-(3,3-Dimethylbutanoyl)-3-hydroxy-2-methylphenoxy)methyl)pyridazin-3-yl)benzoic acid] |  |  | 916 | 616 |
| COc1ccc(C(=O)O)cc1OCC(C)CCOc1ccc(C(=O)CC(C)(C)C)c(O)c1C (centres unmarked) [Example 32, 3-{4-[4-(3,3-Dimethylbutanoyl)-3-hydroxy-2-methylphenoxy]-2-methylbutoxy}-4-methoxybenzoic acid] |  |  | 127 | 200 |
| CCCC(=O)c1ccc(OCCCCCOc2ccc(F)c(C(=O)O)c2)c(C)c1O [Example 48, 5-[5-(4-Butanoyl-3-hydroxy-2-methylphenoxy)pentyloxy]-2-fluorobenzoic acid] |  |  | 39 | > 10000 |

The remaining lines, values ahead:

| EC50 (Human mGlu3) [nM] | EC50 (Human mGlu2) [nM] | EC50 (Rat mGlu2) [nM] | EC50 (Rat mGlu3) [nM] | Compound |
| --- | --- | --- | --- | --- |
| > 10000 | > 10000 |  |  | Cc1c(OCc2cnc(-c3cccc(O)c3)cn2)ccc(C(=O)CC(C)(C)C)c1O [compound 145, 1-(2-Hydroxy-4-{[5-(3-hydroxyphenyl)pyrazin-2-yl]methoxy}-3-methylphenyl)-3,3-dimethylbutan-1-one] |
| 74 | 130 |  |  | COc1c(C(=O)O)cccc1-c1ccc(COc2ccc(C(=O)CC(C)(C)C)c(O)c2C)nc1 [compound 152, 3-(6-((4-(3,3-Dimethylbutanoyl)-3-hydroxy-2-methylphenoxy)methyl)pyridin-3-yl)-2-methoxybenzoic acid] |
| > 30000 | > 30000 |  |  | COc1ccc(C(=O)O)c(-c2cnc(COc3ccc(C#CCOCC(O)CO)c(C)c3C)cn2)c1 (centres unmarked) [compound 151] |
| 3950 | 913 |  |  | Cc1c(OCc2cnc(-c3ccc(C(=O)O)c(F)c3)cn2)ccc(C(=O)CC(C)(C)C)c1O [compound 137, 4-(5-((4-(3,3-Dimethylbutanoyl)-3-hydroxy-2-methylphenoxy)methyl)pyrazin-2-yl)-2-fluorobenzoic acid] |
| > 30000 | > 10000 |  |  | Cc1c(OCc2cnc(-c3cncc(C(=O)O)c3)cn2)ccc(C(=O)CC(C)(C)C)c1O [compound 148, 5-(5-((4-(3,3-Dimethylbutanoyl)-3-hydroxy-2-methylphenoxy)methyl)pyrazin-2-yl)nicotinic acid] |
| 89 | 112 |  |  | Cc1cc(C(=O)O)ccc1-c1cnc(COc2ccc(C(=O)CC(C)(C)C)c(O)c2C)cn1 [compound 144, 4-(5-{[4-(3,3-Dimethylbutanoyl)-3-hydroxy-2-methylphenoxy]methyl}pyrazin-2-yl)-3-methylbenzoic acid] |
| 184 | 281 |  |  | COc1c(C(=O)O)cccc1-c1ccc(COc2ccc(C(=O)CC(C)(C)C)c(O)c2C)nn1 [compound 154, 3-(6-((4-(3,3-Dimethylbutanoyl)-3-hydroxy-2-methylphenoxy)methyl)pyridazin-3-yl)-2-methoxybenzoic acid] |
| 85 | 44 |  |  | COc1c(C(=O)O)cccc1-c1cnc(COc2ccc(C(=O)CC(C)(C)C)c(O)c2C)nc1 [compound 159, 3-(2-((4-(3,3-Dimethylbutanoyl)-3-hydroxy-2-methylphenoxy)methyl)pyrimidin-5-yl)-2-methoxybenzoic acid] |
| 603 | 547 |  |  | Cc1c(OCc2cnc(-c3ccc(C(=O)O)s3)cn2)ccc(C(=O)CC(C)(C)C)c1O [compound 141, 5-(5-((4-(3,3-Dimethylbutanoyl)-3-hydroxy-2-methylphenoxy)methyl)pyrazin-2-yl)thiophene-2-carboxylic acid] |
| > 30000 | > 30000 |  |  | COc1c(C(=O)O)cccc1-c1cnc(COc2ccc3c(c2C)OC(C)(C)CC3=O)cn1 [compound 147, 2-Methoxy-3-(5-(((2,2,8-trimethyl-4-oxochroman-7-yl)oxy)methyl)pyrazin-2-yl)benzoic acid] |
